Experimental data: the supplement of paper PMC10307832

Legend:
Experiment in all cases: relative viability (nuclei count vs DMSO), 5 days (fraction); higher = more cells survive
Crenolanib + OSI-027 = compound: CC1(COc2ccc3c(c2)ncn3-c2ccc3cccc(N4CCC(N)CC4)c3n2)COC1 [Crenolanib] + COc1cccc2cc(-c3nc([C@H]4CC[C@H](C(=O)O)CC4)n4ncnc(N)c34)[nH]c12 [OSI-027] (partner 0.5 µM)
Procedure, shortened: (§1)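 Lung cancer cell lines in 1536-well plates got either a single drug or a fixed anchor-drug dose together with five library-drug doses (not always all listed) in √10 steps, by pin tool, on the day after seeding. Nuclei were counted after 5 days, and relative viability is the treated-to-vehicle ratio of nuclei counts. Values are medians of duplicate plates.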

Tivantinib + Luminespib = compound: O=C1NC(=O)[C@@H](c2cn3c4c(cccc24)CCC3)[C@@H]1c1c[nH]c2ccccc12 [Tivantinib] + CCNC(=O)c1noc(-c2cc(C(C)C)c(O)cc2O)c1-c1ccc(CN2CCOCC2)cc1 [Luminespib] (partner 0.01 µM)
Procedure, shortened: as §1

Crenolanib + Phenformin = compound: CC1(COc2ccc3c(c2)ncn3-c2ccc3cccc(N4CCC(N)CC4)c3n2)COC1 [Crenolanib] + N=C(N)NC(=N)NCCc1ccccc1 [Phenformin] (partner 250 µM)
Procedure, shortened: as §1

Crenolanib + Linsitinib = compound: CC1(COc2ccc3c(c2)ncn3-c2ccc3cccc(N4CCC(N)CC4)c3n2)COC1 [Crenolanib] + C[C@]1(O)C[C@@H](c2nc(-c3ccc4ccc(-c5ccccc5)nc4c3)c3c(N)nccn32)C1 [Linsitinib] (partner 1 µM)
Procedure, shortened: as §1

Cell Line | relative viability (Crenolanib + OSI-027; first compound 0.01 µM) | relative viability (Crenolanib + OSI-027; first compound 0.03162 µM) | relative viability (Crenolanib + OSI-027; first compound 0.1 µM) | relative viability (Crenolanib + OSI-027; first compound 0.3162 µM) | relative viability (Crenolanib + OSI-027; first compound 1 µM) | relative viability (Tivantinib + Luminespib; first compound 0.01 µM) | relative viability (Tivantinib + Luminespib; first compound 0.03162 µM) | relative viability (Tivantinib + Luminespib; first compound 0.1 µM) | relative viability (Tivantinib + Luminespib; first compound 0.3162 µM) | relative viability (Crenolanib + Phenformin; first compound 0.01 µM) | relative viability (Crenolanib + Phenformin; first compound 0.03162 µM) | relative viability (Crenolanib + Phenformin; first compound 0.1 µM) | relative viability (Crenolanib + Phenformin; first compound 0.3162 µM) | relative viability (Crenolanib + Phenformin; first compound 1 µM) | relative viability (Crenolanib + Linsitinib; first compound 0.01 µM) | relative viability (Crenolanib + Linsitinib; first compound 0.03162 µM) | relative viability (Crenolanib + Linsitinib; first compound 0.1 µM) | relative viability (Crenolanib + Linsitinib; first compound 0.3162 µM) | relative viability (Crenolanib + Linsitinib; first compound 1 µM)
LCLC-103H | 0.443 | 0.507 | 0.397 | 0.466 | 0.384 | 1.02 | 0.938 | 0.976 | 0.856 | 0.316 | 0.329 | 0.295 | 0.34 | 0.352 | 1.09 | 0.989 | 1.08 | 1.08 | 0.988
SW 1573 | 0.667 | 0.664 | 0.51 | 0.493 | 0.578 | 0.263 | 0.525 | 0.17 | 0.271 | 0.426 | 0.44 | 0.331 | 0.446 | 0.348 | 0.873 | 0.841 | 0.704 | 0.96 | 0.81
COR-L 105 | 0.842 | 0.783 | 0.642 | 1 | 0.691 | 0.708 | 0.835 | 0.873 | 0.742 | 0.625 | 0.474 | 0.497 | 0.5 | 0.547 | 0.873 | 1.09 | 0.748 | 1.22 | 0.92
NCI-H1993 | 0.527 | 0.526 | 0.509 | 0.567 | 0.592 | 1 | 0.822 | 0.421 | 0.56 | 0.486 | 0.513 | 0.493 | 0.533 | 0.499 | 0.771 | 0.757 | 0.724 | 0.649 | 0.705
NCI-H2009 | 0.766 | 0.636 | 0.623 | 0.688 | 0.581 | 0.989 | 1.08 | 0.985 | 1.1 | 0.497 | 0.488 | 0.46 | 0.4 | 0.408 | 1.23 | 1.2 | 1.2 | 1.21 | 1.19
SK-LU-1 | 0.386 | 0.385 | 0.218 | 0.372 | 0.349 | 0.183 | 0.218 | 0.197 | 0.199 | 0.61 | 0.545 | 0.39 | 0.514 | 0.517 | 1.09 | 0.649 | 0.869 | 1.16 | 0.809
NCI-H2347 | 0.326 |  |  | 0.482 | 0.427 | 0.726 | 0.35 | 0.285 | 0.316 | 0.381 |  |  | 0.546 | 0.469 | 0.972 | 1.02 | 0.736 | 1.04 | 0.873
HCC-44 | 0.498 | 0.496 | 0.611 | 0.519 | 0.434 | 1.13 | 1 | 0.954 | 0.634 | 0.267 | 0.207 | 0.188 | 0.184 | 0.169 | 0.674 | 0.67 | 0.638 | 0.673 | 0.629
EMC-BAC-2 | 0.438 | 0.376 | 0.411 | 0.424 | 0.398 | 1.17 | 1.17 | 1.18 | 1.08 | 0.629 | 0.497 | 0.589 | 0.51 | 0.505 | 0.826 | 0.874 | 0.805 | 0.821 | 0.808
NCI-H3122 | 1.01 | 0.974 | 0.962 | 1.17 | 1.06 | 0.0944 | 0.103 | 0.0763 | 0.0784 | 0.383 | 0.344 | 0.368 | 0.313 | 0.318 | 1.03 | 1 | 0.994 | 1.07 | 1.05
NCI-H358 | 0.849 | 0.777 | 0.675 | 0.744 | 0.565 | 0.323 | 0.332 | 0.377 | 0.157 | 0.372 | 0.321 | 0.3 | 0.292 | 0.239 | 0.819 | 0.682 | 0.566 | 0.727 | 0.58
NCI-H1944 | 0.554 | 0.408 | 0.416 | 0.397 | 0.346 | 0.712 | 0.609 | 0.697 | 0.608 | 0.217 | 0.222 | 0.221 | 0.202 | 0.177 | 1.18 | 1.15 | 1.21 | 1.32 | 1.17
H3255 | 0.586 | 0.544 | 0.514 | 0.573 | 0.588 | 0.934 | 0.811 | 0.741 |  | 0.432 | 0.326 | 0.386 | 0.321 | 0.35 | 0.923 | 0.872 | 0.92 | 0.938 | 1.04
NCI-H1975 | 0.717 | 0.792 | 0.668 | 0.682 | 0.778 | 0.197 | 0.307 | 0.17 | 0.218 | 0.419 | 0.402 | 0.389 | 0.429 | 0.409 | 1.05 | 0.968 | 0.933 | 0.993 | 0.864
NCI-H647 | 0.588 | 0.623 | 0.79 | 0.709 | 0.705 | 0.155 | 0.141 | 0.14 | 0.135 | 0.546 | 0.612 | 0.551 | 0.463 | 0.481 | 1.14 | 1.11 | 1.09 | 1.31 | 1.34
NCI-H441 | 0.929 | 0.6 | 0.507 | 0.539 | 0.463 | 0.343 | 0.359 | 0.27 | 0.337 | 0.771 | 0.881 | 0.955 | 0.936 | 0.633 | 0.555 | 0.508 | 0.46 | 0.484 | 0.509
NCI-H1355 | 0.491 | 0.382 | 0.409 | 0.417 | 0.35 | 0.787 | 0.687 | 0.726 | 0.723 | 0.506 | 0.463 | 0.445 | 0.406 | 0.381 | 0.857 | 0.848 | 0.773 | 0.947 | 0.809
NCI-H23 | 0.689 | 0.649 | 0.594 | 0.783 | 0.351 | 0.278 |  | 0.215 | 0.226 | 0.887 | 0.855 | 0.753 | 0.841 | 0.669 | 0.563 | 0.671 | 0.548 | 0.759 | 0.648
LC-2-ad | 0.939 | 0.793 | 0.792 | 0.706 | 0.554 | 0.995 | 1.17 | 0.94 | 0.906 | 0.648 | 0.562 | 0.573 | 0.536 | 0.446 | 0.834 | 0.887 | 0.797 | 0.844 | 0.873
NCI-H650 | 0.564 | 0.534 | 0.52 | 0.492 | 0.348 | 0.895 | 0.798 | 0.739 | 0.432 | 0.468 | 0.405 | 0.48 | 0.445 | 0.445 | 1.06 | 0.969 | 0.952 | 0.923 | 0.715
SK-MES-1 | 0.598 | 0.657 | 0.508 | 0.581 | 0.599 | 0.763 | 0.747 |  | 0.828 | 0.655 | 0.635 | 0.687 | 0.636 | 0.583 | 1.09 | 1.13 | 0.945 | 1.13 | 1.04
NCI-H2087 | 0.664 | 0.642 | 0.471 | 0.546 | 0.467 | 0.165 | 0.182 | 0.139 | 0.137 | 0.466 | 0.488 | 0.434 | 0.524 | 0.471 | 1.02 | 1.13 | 0.917 | 1.23 | 1.02
NCI-H838 | 0.378 | 0.358 | 0.418 | 0.366 | 0.283 | 0.276 | 0.308 | 0.302 | 0.335 | 0.562 | 0.586 | 0.632 | 0.539 | 0.527 | 1.05 | 0.967 | 0.929 | 1.09 | 0.943
NCI-H460 | 0.825 | 0.685 | 0.682 | 0.752 | 0.598 | 0.0321 | 0.0359 | 0.0227 | 0.0374 | 0.549 | 0.514 | 0.518 | 0.506 | 0.473 | 0.85 | 0.817 | 0.745 | 1.02 | 0.816
LU99A | 0.305 | 0.318 | 0.257 | 0.331 | 0.264 | 0.277 | 0.26 | 0.235 | 0.208 | 0.95 | 0.748 | 0.818 | 0.902 | 0.822 | 0.547 | 0.559 | 0.531 | 0.628 | 0.603
NCI-H322M | 0.648 | 0.574 | 0.575 | 0.634 | 0.534 | 0.977 | 0.874 | 0.737 |  | 0.794 | 0.802 | 0.755 | 0.835 | 0.803 | 0.944 | 0.923 | 0.884 | 0.935 | 0.975
NCI-H520 | 0.245 | 0.284 | 0.311 | 0.306 | 0.318 | 0.212 | 0.218 | 0.209 | 0.198 | 0.605 | 0.574 | 0.75 | 0.584 | 0.616 | 0.89 | 1.07 | 0.853 | 1.08 | 0.868
NCI-H661 | 0.757 | 0.721 | 0.744 | 0.854 | 0.776 | 0.936 | 0.93 | 0.954 | 0.799 | 0.284 | 0.275 | 0.289 | 0.283 | 0.289 | 0.628 | 0.527 | 0.499 | 0.544 | 0.497
